Assay results as given in US10806744B2, “Edible composition” (Conopco, Inc., priority 2015, dated 2020).
Several values for one entry are separate records, joined by “and”; a condition that tells them apart may be missing. Identical values can stand only once.

What was measured:
[1] = test system: SGLT1 and GLUT2; test: Assigned class of transporter inhibited, from Caco-2 screening at 5 mM and 25 mM D-glucose; assay type: cell-based, human; settings: from % inhibition at 5 mM and 25 mM D-glucose; compound 300 μM
[2] = test system: glucose transport across differentiated Caco-2 cell monolayers; test: Glucose transport cell model: 5 mM D-glucose 15 minutes, then 25 mM for 45 minutes, cumulative glucose transport; assay type: cell-based, human; parameters: unit not given here; settings: duplicate
Protocol: Caco-2 cells were cultured and routinely passaged as described in Example 1.
After the last incubation, all of the retained PBS(+) from each step (i.e. at 15, 30, 45 and 60 minutes) was assayed for glucose levels as described in Example 1, and the total cumulative glucose transport calculated. The localised changes in luminal glucose concentrations described and illustrated in example 1 are mimicked in-vitro through an initial short incubation of differentiated Caco-2 cells with a low level of D-glucose (5 mM for 15 minutes) immediately followed by a sustained incubation with a high level of D-glucose (final concentration of 25 mM for 45 minutes).
In the above table, every test pairing of a homisoflavonoid (HIF) and a flavonoid monoglucoside (FM) has 5 values reported: • 1. No Compound (NC)+NC • 2.
Synergy is achieved when the inhibition caused by the combination of HIF and FM is greater than the sum of the inhibition due to HIF alone added to the inhibition due to FM alone.

[3] = biological target: T1, SGLT1 (Homo sapiens, UniProt P13866); test: Glucose transport inhibitor cell screening assay, 5 mM D-glucose for 15 minutes; settings: for inhibition at 300 µM: Caco-2, read-out: % Glucose transport inhibiton 5 mM; for identified as inhibitors of SGLT1: Caco-2 cell assay
T1 sequence (P13866 1-664): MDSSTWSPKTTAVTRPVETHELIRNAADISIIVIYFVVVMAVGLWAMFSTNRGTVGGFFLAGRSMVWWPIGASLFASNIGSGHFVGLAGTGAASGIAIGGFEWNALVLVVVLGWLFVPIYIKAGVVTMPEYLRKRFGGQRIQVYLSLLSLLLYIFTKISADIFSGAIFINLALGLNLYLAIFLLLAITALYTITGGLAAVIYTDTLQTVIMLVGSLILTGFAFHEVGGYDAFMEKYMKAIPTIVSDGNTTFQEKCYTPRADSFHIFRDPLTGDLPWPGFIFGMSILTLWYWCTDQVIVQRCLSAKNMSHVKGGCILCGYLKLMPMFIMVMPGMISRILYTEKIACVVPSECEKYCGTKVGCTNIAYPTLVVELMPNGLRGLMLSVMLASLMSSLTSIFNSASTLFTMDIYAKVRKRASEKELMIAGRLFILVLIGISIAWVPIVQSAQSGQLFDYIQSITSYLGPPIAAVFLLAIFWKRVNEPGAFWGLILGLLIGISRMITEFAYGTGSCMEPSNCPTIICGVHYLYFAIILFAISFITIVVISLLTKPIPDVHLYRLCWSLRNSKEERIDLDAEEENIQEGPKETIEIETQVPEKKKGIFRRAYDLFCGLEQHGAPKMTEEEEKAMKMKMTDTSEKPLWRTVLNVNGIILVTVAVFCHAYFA
Protocol: (§1) Human epithelial colorectal adenocarcinoma (Caco-2) cells were obtained from the American Type Culture Collection (ATCC) and cultured in Growth Medium consisting of Dulbecco's modified Eagle's medium (containing Glutamax-1, 4.5 g/L D-glucose and 25 mM 4-(2-hydroxyethyl)-1-piperazine ethanesulphonic acid (Hepes) (Invitrogen)), 10% foetal bovine serum (Sigma), 1% non-essential amino acids (Invitrogen) and 1 mM sodium pyruvate (Sigma)). The cells were routinely passaged at approximately 80% confluence using TrypLE™ Express Stable Trypsin-Like Enzyme (Invitrogen) to detach the cells, and seeded at approximately 114 cells per mm^2 in fresh tissue culture flasks. Only cells between the passage numbers 45 and 49 were used for experiments.
(§2) Corning® HTS Transwell® 96 well permeable insert supports (Sigma) were collagen coated with 40 μl of 50 μg/ml rat tail collagen type I (BD Biosciences) in 0.02 M acetic acid for one hour at room temperature under sterile conditions. The inserts were washed twice in phosphate buffered saline (PBS (Invitrogen)) and the Caco-2 cells seeded into the inserts at 1.0×10^6 cell/ml (75 μl per insert) in Growth Medium and 30 ml of Growth Medium added to the feeder plate below. The cells were left to attach to the collagen matrix and form monolayers over 48 hours at 37° C., 5% CO2. Both inserts and feeder plate were washed in PBS and the cells incubated with BD Entero-STIM™ Enterocyte Differentiation Medium containing MITO+™ Serum Extender solution (both BD Biosciences), 75 μl per insert and 30 ml in the feeder plate, for a further 48 hours at 37° C., 5% CO2.
(§3) Differentiated cell monolayers were washed gently in Dulbecco's Phosphate Buffered Saline containing CaCl2 and MgCl2 (PBS(+) (Invitrogen)) and the inserts transferred to a new Corning® HTS Transwell®-96 well receiver plate (Sigma). The cells were incubated with fresh PBS(+) (75 μl per insert and 225 μl per well) for 60 minutes at 37° C., 5% CO2. The PBS(+) was gently aspirated and replaced with 75 μl per insert of either 5 mM D-glucose (Sigma)±test compound or 25 mM D-glucose±test compound in triplicate and 225 μl per well of PBS(+) quickly added to each well. The 5 mM glucose wells and the 25 mM glucose wells were incubated at 37° C., 5% CO2 for 15 minutes and 30 minutes, respectively. […] The cell inserts were transferred to a new receiver plate, the supernatant gently aspirated from the cells and replaced with 100 μl of 100 μM of Lucifer Yellow (Sigma) solution to confirm the integrity of the monolayers. 225 μl of PBS(+) was added to each well and incubated at 37° C., 5% CO2 for 1 hour. The cell inserts were then discarded and the permeability of the membranes to Lucifer Yellow checked by measuring the fluorescence of the samples at 485 nm (excitation) and 530 nm (emission) on a Spectramax Gemini EM fluorescence microplate reader.
(§4) The amount of glucose transported across the cell monolayers was measured using a glucose assay based on Invitrogen's Amplex Red Glucose/Glucose oxidase Assay Kit. Briefly, 50 μl of each test sample was transferred to a black sided/clear bottom 96-well plate (Greiner Bio-One) to which 100 μl of reaction buffer (0.5 μl 10 mM Ampliflu Red, 1 μl 10 U/ml Horse Radish peroxidase, 1 μl 100 U/ml glucose oxidase and 97.5 μl PBS (all Sigma)) was added. After 10 minutes incubation at room temperature, the fluorescence of the samples was measured at 530 nm (excitation) and 590 nm (emission) on a Spectramax Gemini EM fluorescence microplate reader and the glucose concentration extrapolated from a standard curve.
(§5) At higher D-glucose concentrations, the SGLT1 transporter becomes saturated and consequently the majority of glucose transport across the monolayer is driven by the low affinity, high capacity GLUT2 transporter that is targeted to the apical membrane only following an initial SGLT1-dependent transport of glucose.

[4] = biological target: T2, GLUT2 (Homo sapiens, UniProt P11168); test: Glucose transport inhibitor cell screening assay, 25 mM D-glucose for 30 minutes; settings: for inhibition at 300 µM: Caco-2, read-out: % Glucose transport inhibiton 25 mM; for identified as inhibitors of GLUT2: Caco-2 cell assay
T2 sequence (P11168 1-524): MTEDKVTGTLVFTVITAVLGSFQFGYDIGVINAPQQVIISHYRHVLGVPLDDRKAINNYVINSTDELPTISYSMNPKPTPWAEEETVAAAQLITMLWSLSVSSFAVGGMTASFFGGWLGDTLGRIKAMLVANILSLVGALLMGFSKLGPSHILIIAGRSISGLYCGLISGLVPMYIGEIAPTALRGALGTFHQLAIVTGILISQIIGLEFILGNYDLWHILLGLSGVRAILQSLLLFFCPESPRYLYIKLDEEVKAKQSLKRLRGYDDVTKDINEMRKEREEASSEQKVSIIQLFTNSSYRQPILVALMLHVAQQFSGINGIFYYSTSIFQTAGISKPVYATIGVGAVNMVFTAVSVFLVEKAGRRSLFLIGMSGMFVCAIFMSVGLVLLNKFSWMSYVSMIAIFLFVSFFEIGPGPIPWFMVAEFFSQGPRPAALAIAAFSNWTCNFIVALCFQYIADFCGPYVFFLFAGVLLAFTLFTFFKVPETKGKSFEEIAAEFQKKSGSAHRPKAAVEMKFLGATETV
Protocol: as §1, §2, §3, §4, §5

[5] = biological target: T1, SGLT1; settings: as disclosed in Table 1 of WO 2014/086632; cited from earlier work
[6] = homoisoflavonoid 5 uM alone, added at 25 mM glucose step (NC at 5 mM)
[7] = homoisoflavonoid 2.5 uM alone, added at 25 mM glucose step (NC at 5 mM)
[8] = flavonoid monoglucoside 300 uM alone, added at 5 mM glucose step only (NC at 25 mM)
[9] = flavonoid monoglucoside 300 uM alone, added at 25 mM glucose step only (NC at 5 mM)
[10] = homoisoflavonoid 10 uM alone, added at 25 mM glucose step (NC at 5 mM)

Compound	Class (assigned class of transporter inhibited) [1]	inhibition at 300 µM [3]	inhibition at 300 µM [4]	identified as inhibitors of GLUT2 [4]	SGLT1 inhibitory activity [5]	further results
COc1ccc(C[C@@H]2COc3c(C)c(O)c(C)c(O)c3C2=O)cc1 [MOB, methylophiopogonanone B]	GLUT2 (GLUT2 inhibitors having ≥20% inhibition at both 5 mM and 25 mM D-glucose levels)	46.2 ± 2.04%	30.6 ± 3.2%	inhibitors of GLUT2		Cumulative (AVE) glucose transport [2, 6]: 200.59
O=c1cc(-c2ccc(O)c(O)c2)oc2cc(O[C@@H]3O[C@H](CO)[C@@H](O)[C@H](O)[C@H]3O)cc(O)c12 [Luteolin-7-glucoside]					SGLT1 inhibitors	Cumulative (AVE) glucose transport ([2]; flavonoid monoglucoside 300 uM alone, added at 5 mM glucose step only (NC at 25 mM), listed as L7G): 220.63 and 301.4; Cumulative (AVE) glucose transport ([2]; flavonoid monoglucoside 300 uM alone, added at 25 mM glucose step only (NC at 5 mM), listed as L7G): 256.73 and 281.9
Cc1c(O)c(C)c2c(c1O)C(=O)C(Cc1ccc(O)cc1)CO2 (stereo not shown) [EA3, 5,7-dihydroxy-3-(4′-hydroxybenzyl)-6,8-dimethylchroman-4-one]	GLUT2 (GLUT2 inhibitors having ≥20% inhibition at both 5 mM and 25 mM D-glucose levels)	91.15 ± 0.46%	67.4 ± 5.87%	inhibitors of GLUT2		Cumulative (AVE) glucose transport [2, 7]: 291.33
Cc1c(O)c(C)c2c(c1O)C(=O)[C@H](Cc1ccc3c(c1)OCO3)CO2 [MOA, methylophiopogonanone A]	GLUT2 (GLUT2 inhibitors having ≥20% inhibition at both 5 mM and 25 mM D-glucose levels)	39.3 ± 2.17%	27.7 ± 3.7%	inhibitors of GLUT2		Cumulative (AVE) glucose transport [2, 6]: 231.69
COc1c(O[C@@H]2O[C@H](CO)[C@@H](O)[C@H](O)[C@H]2O)cc2occ(-c3ccc(O)cc3)c(=O)c2c1O [Tectoridin]	SGLT1	29.4 ± 0.62%	4.92 ± 2.08%			Cumulative (AVE) glucose transport ([2]; flavonoid monoglucoside 300 uM alone, added at 5 mM glucose step only (NC at 25 mM), listed as T): 346.92 and 321.4 and 298.40; Cumulative (AVE) glucose transport ([2]; flavonoid monoglucoside 300 uM alone, added at 25 mM glucose step only (NC at 5 mM), listed as T): 395.85 and 304.5 and 298.98; identified as inhibitors of SGLT1 [3]: inhibitors of SGLT1
O=C1CC(c2ccc(O)cc2)Oc2cc(O[C@@H]3O[C@H](CO)[C@@H](O)[C@H](O)[C@H]3O)cc(O)c21 (stereo partly shown) [Naringenin-7-O-glucoside]					SGLT1 inhibitors	Cumulative (AVE) glucose transport [2, 8]: 215.32; Cumulative (AVE) glucose transport [2, 9]: 236.65
OC[C@H]1O[C@@H](Oc2cc3c(O)cc(O)cc3[o+]c2-c2cc(O)c(O)c(O)c2)[C@H](O)[C@@H](O)[C@@H]1O.[Cl-] [Delphinidin-3-O-glucoside chloride, delphinidin-3-O-glucoside chloride]	SGLT1					Cumulative (AVE) glucose transport [2, 8]: 220.62; Cumulative (AVE) glucose transport [2, 9]: 227.60; identified as inhibitors of SGLT1 [3]: inhibitors of SGLT1; % Glucose transport inhibiton 5 mM ([3]; compound 300 μM in DMSO, 5 mM D-glucose, 15 minutes, Caco-2 monolayer, triplicate): 41.00 ± 3.60%; % Glucose transport inhibiton 25 mM ([4]; compound 300 μM in DMSO, 25 mM D-glucose, 30 minutes, Caco-2 monolayer, triplicate): 12.82 ± 1.19%
O=c1c(O[C@@H]2O[C@H](CO)[C@@H](O)[C@H](O)[C@H]2O)c(-c2ccc(O)cc2)oc2cc(O)cc(O)c12 [Kaempferol-3-glucoside]					SGLT1 inhibitors	Cumulative (AVE) glucose transport ([2]; flavonoid monoglucoside 150 uM alone, added at 5 mM glucose step only (NC at 25 mM)): 297.72; Cumulative (AVE) glucose transport ([2]; flavonoid monoglucoside 150 uM alone, added at 25 mM glucose step only (NC at 5 mM)): 290.49
O=c1cc(-c2ccc(O)cc2)oc2c([C@@H]3O[C@H](CO)[C@@H](O)[C@H](O)[C@H]3O)c(O)cc(O)c12 [Apigenin-8-C-glucoside]					SGLT1 inhibitors	Cumulative (AVE) glucose transport [2, 8]: 291.89; Cumulative (AVE) glucose transport [2, 9]: 287.58
O=C(CCc1ccc(O)cc1)c1c(O)cc(O)cc1O[C@@H]1O[C@H](CO)[C@@H](O)[C@H](O)[C@H]1O [Phloridzin, reference compound]			14.3 ± 0.84%			
Cc1c(O)cc2c(c1O)C(=O)C(Cc1ccc(O)cc1)CO2 (stereo not shown) [EA1, 5,7-dihydroxy-3-(4′-hydroxybenzyl)-6-methylchroman-4-one]	GLUT2 (GLUT2 inhibitors having ≥20% inhibition at both 5 mM and 25 mM D-glucose levels)	90.7 ± 1.4%	66.6 ± 5.21%	inhibitors of GLUT2		Cumulative (AVE) glucose transport [2, 7]: 339.2; Cumulative (AVE) glucose transport [2, 6]: 284.6; Cumulative (AVE) glucose transport [2, 10]: 301.50 and 232.03
COc1c(O)c(C)c(O)c2c1OCC(Cc1ccc(O)cc1)C2=O (stereo not shown) [EA2, 5,7-dihydroxy-3-(4′-hydroxybenzyl)-6-methyl-8-methoxychroman-4-one]	GLUT2 (GLUT2 inhibitors having ≥20% inhibition at both 5 mM and 25 mM D-glucose levels)	89.9 ± 0.06%	63 ± 2.94%	inhibitors of GLUT2		Cumulative (AVE) glucose transport [2, 10]: 283.98
